Test results taken from patent publication US20260200901A1, “NOVEL COMPOUNDS AS MODULATORS OF NLRP3 INHIBITION” (Hoffmann-La Roche Inc., priority 2022, published 2026).
pIC50: −log10 of the molar value. Counter-ions that a name gives are not always drawn.

How the values were obtained:
NLRP3 [1] = biological target: T1, NLRP3 (Homo sapiens, UniProt Q96P20); experiment: THP-1 cells pyroptosis assay
Description: The cells were routinely passaged and grown to confluency (~10^6 cells/ml). On the day of the experiment, THP-1 cells were harvested and resuspended into RPMI medium (without FBS). […] To this diluted cell solution was added LPS (Sigma #L4524) to give a 1 μg/ml Final Assay Concentration (FAC). 40 μl of the final preparation was aliquoted into each well of a 96-well plate. The plate thus prepared was used for compound screening.

NLRP3 [2] = biological target: T1, NLRP3; experiment: Human whole blood IL-1β release assay; assay type: cell-based; set-up: Human whole blood in Li-heparin tubes was obtained from healthy donors; from tissue; host or cells: human whole blood from healthy donors; conditions: LPS 1 μg/ml, nigericin 10 μM, IL-1β AlphaLisa
Excerpt: For systemic delivery, the ability to inhibit NLRP3 when the compounds are present within the bloodstream is of great importance.

human P-gp = biological target: T2, human P-gp (Homo sapiens, UniProt P08183); experiment: Transcellular human P-gp assay (transfected LLC-PK1 cells); assay type: in vitro ADME; conditions: LLC-PK1 cells over-expressing human P-gp
T2 construct: expressed in transfected cells; host or cells: LLC-PK1 cells (porcine kidney epithelial cells)
Excerpt: The general assay uses transfected LLC-PK1 cells (porcine kidney epithelial cells) over-expressing human or mouse P-gp, cultured on 96 well semi-permeable filter membrane plates, where they form a polarized monolayer with tight junctions, and act as a barrier between the apical and basolateral compartment.
P-gp is expressed in the apical-facing membrane of the monolayer.

[3] = biological target: T3, hERG cardiac potassium channel (Homo sapiens, UniProt Q12809); experiment: hERG screening assay (automated patch clamp, CHO crelox hERG cells); assay type: cell-based; conditions: whole-cell patch clamp, 35-37° C.
T3 construct: host or cells: CHO crelox hERG cell line (Chinese hamster)
Excerpt: In the drug development process of small molecules, one of the most frequent adverse side effects, leading to the failure of drugs, is the cardiac arrhythmias. […] Having no or low inhibition of the hERG cardiac potassium channel is therefore considered as beneficial.
Ready-to-use frozen instant CHO-hERG cells were cryopreserved at Evotec (Germany) and used directly in the experiments.
The extracellular solution contains (in mM): NaCl 150; KCl 4; CaCl2 1; MgCl2 1; HEPES 10; pH 7.2-7.4 with NaOH, osmolarity 290-330 mOsm. The internal solution contains (in mM): KCl, 10; KF, 100; NaCl, 10; HEPES, 10; EGTA, 20; pH=7.0-7.4 with KOH, osmolarity 260-300 mOsm.
The effects of a compound on hERG K+-currents parameters will be evaluated at 2 concentrations in at least 4 cells.
K+ currents are measured with the patch-voltage-clamp technique in the whole-cell configuration at 35-37° C.
The amplitudes of IKhERG were recorded in each concentration of drug and they were compared to the vehicle control values (taken as 100%) to define fractional blocks. The concentration-response data were fitted with the following relationship:
Concentration-response curves were fitted by non-linear regression analysis using EworkBook suite (ID Business Solutions Ltd, UK). Data fit was done with the 4 Parameter Logistic Model (fit=(A+(B/(1+((x/C)^D)))), where A=0 and B=100).

T1 sequence (Q96P20 whole entry): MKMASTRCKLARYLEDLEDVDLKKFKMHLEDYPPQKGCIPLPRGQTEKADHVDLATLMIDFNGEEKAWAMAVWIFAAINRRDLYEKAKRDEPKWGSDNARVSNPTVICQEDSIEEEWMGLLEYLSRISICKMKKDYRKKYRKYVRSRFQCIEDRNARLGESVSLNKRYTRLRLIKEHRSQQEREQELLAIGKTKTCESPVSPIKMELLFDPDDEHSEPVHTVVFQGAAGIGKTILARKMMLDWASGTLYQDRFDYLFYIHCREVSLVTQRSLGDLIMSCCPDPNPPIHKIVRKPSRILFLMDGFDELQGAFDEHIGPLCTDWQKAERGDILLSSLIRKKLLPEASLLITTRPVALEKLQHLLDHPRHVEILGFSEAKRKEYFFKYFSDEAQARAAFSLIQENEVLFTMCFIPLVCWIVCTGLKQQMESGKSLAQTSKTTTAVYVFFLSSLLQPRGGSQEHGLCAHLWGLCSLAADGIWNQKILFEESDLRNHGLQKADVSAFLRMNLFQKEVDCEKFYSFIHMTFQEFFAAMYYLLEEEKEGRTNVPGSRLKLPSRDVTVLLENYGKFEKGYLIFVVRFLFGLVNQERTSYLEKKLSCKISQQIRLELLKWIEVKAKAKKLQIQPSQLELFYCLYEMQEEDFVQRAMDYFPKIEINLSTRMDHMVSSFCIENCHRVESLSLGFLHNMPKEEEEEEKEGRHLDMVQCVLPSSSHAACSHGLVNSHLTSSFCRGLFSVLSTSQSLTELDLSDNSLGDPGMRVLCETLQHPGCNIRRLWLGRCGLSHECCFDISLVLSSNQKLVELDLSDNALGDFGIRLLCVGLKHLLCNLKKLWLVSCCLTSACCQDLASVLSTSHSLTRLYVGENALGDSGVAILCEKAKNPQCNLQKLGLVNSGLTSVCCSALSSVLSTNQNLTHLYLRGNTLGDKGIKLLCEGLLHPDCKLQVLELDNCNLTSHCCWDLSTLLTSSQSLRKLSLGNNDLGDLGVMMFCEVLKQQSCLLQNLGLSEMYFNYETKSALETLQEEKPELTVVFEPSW
T2 sequence (P08183 whole entry): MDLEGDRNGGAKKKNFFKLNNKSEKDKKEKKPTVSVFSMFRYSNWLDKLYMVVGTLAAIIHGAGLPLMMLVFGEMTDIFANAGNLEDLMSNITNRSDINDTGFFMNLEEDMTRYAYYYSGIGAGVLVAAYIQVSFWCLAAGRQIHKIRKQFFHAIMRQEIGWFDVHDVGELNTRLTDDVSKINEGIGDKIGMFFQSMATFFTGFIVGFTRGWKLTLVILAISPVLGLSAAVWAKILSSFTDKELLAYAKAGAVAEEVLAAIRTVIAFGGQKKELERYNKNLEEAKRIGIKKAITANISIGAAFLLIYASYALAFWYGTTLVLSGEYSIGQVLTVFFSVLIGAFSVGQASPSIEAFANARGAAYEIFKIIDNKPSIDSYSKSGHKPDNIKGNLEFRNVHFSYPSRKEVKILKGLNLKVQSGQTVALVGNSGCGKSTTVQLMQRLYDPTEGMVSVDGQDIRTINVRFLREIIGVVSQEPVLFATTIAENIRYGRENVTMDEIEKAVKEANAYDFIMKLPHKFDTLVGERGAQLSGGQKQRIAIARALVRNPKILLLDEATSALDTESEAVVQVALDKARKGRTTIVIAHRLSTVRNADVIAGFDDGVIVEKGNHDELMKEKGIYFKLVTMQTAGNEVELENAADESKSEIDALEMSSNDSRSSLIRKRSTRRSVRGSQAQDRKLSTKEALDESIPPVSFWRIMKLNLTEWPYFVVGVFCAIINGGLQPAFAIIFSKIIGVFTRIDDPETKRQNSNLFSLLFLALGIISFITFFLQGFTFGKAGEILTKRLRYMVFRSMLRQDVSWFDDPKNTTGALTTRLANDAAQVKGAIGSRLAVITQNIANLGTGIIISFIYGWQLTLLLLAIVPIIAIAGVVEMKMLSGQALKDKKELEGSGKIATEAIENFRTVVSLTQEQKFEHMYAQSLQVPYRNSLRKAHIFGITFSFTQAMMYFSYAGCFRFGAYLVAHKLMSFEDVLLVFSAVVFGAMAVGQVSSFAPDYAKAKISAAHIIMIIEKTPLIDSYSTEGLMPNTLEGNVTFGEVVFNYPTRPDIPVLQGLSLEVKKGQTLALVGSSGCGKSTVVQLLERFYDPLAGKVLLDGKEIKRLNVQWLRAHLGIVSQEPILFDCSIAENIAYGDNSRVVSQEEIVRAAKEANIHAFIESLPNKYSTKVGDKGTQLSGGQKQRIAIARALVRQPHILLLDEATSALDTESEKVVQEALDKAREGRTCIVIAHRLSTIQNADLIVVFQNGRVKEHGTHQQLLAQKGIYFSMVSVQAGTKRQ
T3 sequence (Q12809 whole entry): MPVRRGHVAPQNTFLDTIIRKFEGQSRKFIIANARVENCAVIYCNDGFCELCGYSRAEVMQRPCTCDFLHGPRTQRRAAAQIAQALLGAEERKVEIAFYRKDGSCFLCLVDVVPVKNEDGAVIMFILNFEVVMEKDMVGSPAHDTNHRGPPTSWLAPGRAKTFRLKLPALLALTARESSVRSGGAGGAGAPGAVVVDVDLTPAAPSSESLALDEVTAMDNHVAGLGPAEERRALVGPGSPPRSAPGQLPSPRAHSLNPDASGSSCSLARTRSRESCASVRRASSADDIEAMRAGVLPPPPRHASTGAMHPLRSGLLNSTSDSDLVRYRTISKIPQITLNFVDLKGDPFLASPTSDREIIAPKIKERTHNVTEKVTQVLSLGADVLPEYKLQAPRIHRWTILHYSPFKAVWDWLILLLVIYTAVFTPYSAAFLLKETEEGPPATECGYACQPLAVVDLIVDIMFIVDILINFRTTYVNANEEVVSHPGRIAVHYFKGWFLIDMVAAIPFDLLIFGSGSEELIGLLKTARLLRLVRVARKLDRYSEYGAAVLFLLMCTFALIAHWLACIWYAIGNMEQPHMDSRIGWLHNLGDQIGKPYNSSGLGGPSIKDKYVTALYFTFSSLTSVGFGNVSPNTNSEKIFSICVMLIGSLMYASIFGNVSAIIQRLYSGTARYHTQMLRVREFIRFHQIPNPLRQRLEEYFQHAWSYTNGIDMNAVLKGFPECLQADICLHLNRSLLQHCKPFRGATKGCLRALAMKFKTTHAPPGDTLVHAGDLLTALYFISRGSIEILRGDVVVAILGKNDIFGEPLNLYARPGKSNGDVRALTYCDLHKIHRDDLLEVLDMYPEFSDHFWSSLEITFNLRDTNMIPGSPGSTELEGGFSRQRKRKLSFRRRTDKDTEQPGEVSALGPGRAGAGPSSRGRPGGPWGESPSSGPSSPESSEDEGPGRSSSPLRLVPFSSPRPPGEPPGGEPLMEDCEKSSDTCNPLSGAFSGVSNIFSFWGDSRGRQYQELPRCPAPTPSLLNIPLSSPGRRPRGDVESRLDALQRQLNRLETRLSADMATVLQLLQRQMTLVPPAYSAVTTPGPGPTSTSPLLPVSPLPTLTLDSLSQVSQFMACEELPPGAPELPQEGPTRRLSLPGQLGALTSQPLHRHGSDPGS

Cc1nc(N[C@@H]2CCCN(CCCS(C)(=O)=O)C2)nnc1-c1ccc2c(c1O)CCO2 [Example 22, 5-[5-Methyl-3-[[(3R)-1-(3-methylsulfonylpropyl)-3-piperidyl]amino]-1,2,4-triazin-6-yl]-2,3-dihydrobenzofuran-4-ol]
pIC50 (NLRP3 [1]): 7.24
pIC50 (NLRP3 [2]): 7.27

Cc1nc(N[C@@H]2CCCN(CCc3nnn[nH]3)C2)nnc1-c1ccc2c(c1O)CCO2 [Example 21, 5-[5-Methyl-3-[[(3R)-1-[2-(1H-tetrazol-5-yl)ethyl]-3-piperidyl]amino]-1,2,4-triazin-6-yl]-2,3-dihydrobenzofuran-4-ol]
pIC50 (NLRP3 [1]): 7.70
pIC50 (NLRP3 [2]): 6.78

Cc1nc(N[C@@H]2CCCN(CC3(O)CC3)C2)nnc1-c1ccc2c(c1O)CCO2 [Example 4, 5-[3-[[(3R)-1-[(1-Hydroxycyclopropyl)methyl]-3-piperidyl]amino]-5-methyl-1,2,4-triazin-6-yl]-2,3-dihydrobenzofuran-4-ol]
pIC50 (NLRP3 [1]): 7.77
pIC50 (NLRP3 [2]): 7.48

Cc1nc(N[C@@H]2CCCN(CCCC(=O)N(C)C)C2)nnc1-c1ccc2c(c1O)CCO2 [Example 12, 4-[(3R)-3-[[6-(4-Hydroxy-2,3-dihydrobenzofuran-5-yl)-5-methyl-1,2,4-triazin-3-yl]amino]-1-piperidyl]-N,N-dimethyl-butanamide]
pIC50 (NLRP3 [1]): 7.28
pIC50 (NLRP3 [2]): 7.52

Cc1nc(N[C@@H]2CCCN(CCCC(=O)N3CCOCC3)C2)nnc1-c1ccc2c(c1O)CCO2 [Example 16, 4-[(3R)-3-[[6-(4-Hydroxy-2,3-dihydrobenzofuran-5-yl)-5-methyl-1,2,4-triazin-3-yl]amino]-1-piperidyl]-1-morpholino-butan-1-one]
pIC50 (NLRP3 [1]): 7.40
pIC50 (NLRP3 [2]): 7.34

Cc1nc(N[C@@H]2CCCN(CCn3cccn3)C2)nnc1-c1ccc2c(c1O)CCO2 [Example 17, 5-[5-Methyl-3-[[(3R)-1-(2-pyrazol-1-ylethyl)-3-piperidyl]amino]-1,2,4-triazin-6-yl]-2,3-dihydrobenzofuran-4-ol]
pIC50 (NLRP3 [1]): 7.46
pIC50 (NLRP3 [2]): 7.12

Cc1nc(N[C@@H]2CCCN(CCCC#N)C2)nnc1-c1ccc2c(c1O)CCO2 [Example 19, 4-[(3R)-3-[[6-(4-Hydroxy-2,3-dihydrobenzofuran-5-yl)-5-methyl-1,2,4-triazin-3-yl]amino]-1-piperidyl]butanenitrile]
pIC50 (NLRP3 [1]): 7.70
pIC50 (NLRP3 [2]): 7.59

CNC(=O)CCCN1CCC[C@@H](Nc2nnc(-c3ccc4c(c3O)CCO4)c(C)n2)C1 [Example 10, 4-[(3R)-3-[[6-(4-hydroxy-2,3-dihydrobenzofuran-5-yl)-5-methyl-1,2,4-triazin-3-yl]amino]-1-piperidyl]-N-methyl-butanamide]
pIC50 (NLRP3 [1]): 7.57
efflux ratio (human P-gp; read-out: ER (efflux ratio)): 8.5
Papp (human P-gp; read-out: Permeability): 12.2 ×10⁻⁶ cm/s
pIC50 (NLRP3 [2]): 7.40
IC20 [3]: 2900 nM

Cc1nc(N[C@@H]2CCCN(CCCc3ncco3)C2)nnc1-c1ccc2c(c1O)CCO2 [Example 20, 5-[5-Methyl-3-[[(3R)-1-(3-oxazol-2-ylpropyl)-3-piperidyl]amino]-1,2,4-triazin-6-yl]-2,3-dihydrobenzofuran-4-ol]
pIC50 (NLRP3 [1]): 7.80
pIC50 (NLRP3 [2]): 7.74

Cc1nc(N[C@@H]2CCCN(CCCc3nnn[nH]3)C2)nnc1-c1ccc2c(c1O)CCO2 [Example 18, 5-[5-Methyl-3-[[(3R)-1-[3-(1H-tetrazol-5-yl)propyl]-3-piperidyl]amino]-1,2,4-triazin-6-yl]-2,3-dihydrobenzofuran-4-ol; formic acid]
pIC50 (NLRP3 [1]): 7.64
pIC50 (NLRP3 [2]): 7.64

Cc1nc(N[C@@H]2CCCN(C3COC3)C2)nnc1-c1ccc2c(c1O)CCO2 [Example 8, 5-[5-Methyl-3-[[(3R)-1-(oxetan-3-yl)-3-piperidyl]amino]-1,2,4-triazin-6-yl]-2,3-dihydrobenzofuran-4-ol]
pIC50 (NLRP3 [1]): 6.92

Cc1nc(N[C@@H]2CCCN(CCCC(=O)N3CCC(O)C3)C2)nnc1-c1ccc2c(c1O)CCO2 (mixture of isomers) [Example 15, 1-(3-Hydroxypyrrolidin-1-yl)-4-[rac-(3R)-3-[[6-(4-hydroxy-2,3-dihydrobenzofuran-5-yl)-5-methyl-1,2,4-triazin-3-yl]amino]-1-piperidyl]butan-1-one; formic acid]
pIC50 (NLRP3 [1]): 7.24
pIC50 (NLRP3 [2]): 7.48

COCCN1CCC[C@@H](Nc2nnc(-c3ccc4c(c3O)CCO4)c(C)n2)C1 [Example 5, 5-[3-[[(3R)-1-(2-Methoxyethyl)-3-piperidyl]amino]-5-methyl-1,2,4-triazin-6-yl]-2,3-dihydrobenzofuran-4-ol; formic acid salt]
pIC50 (NLRP3 [1]): 7.72
pIC50 (NLRP3 [2]): 7.82

COC(C)CN1CCC[C@@H](Nc2nnc(-c3ccc4c(c3O)CCO4)c(C)n2)C1 (stereo partly drawn) [Example 7, 5-[5-Methyl-3-[[(3R)-1-(2-methoxypropyl)-3-piperidyl]amino]-1,2,4-triazin-6-yl]-2,3-dihydrobenzofuran-4-ol]
pIC50 (NLRP3 [1]): 7.21
pIC50 (NLRP3 [2]): 7.40

CCN1C[C@@H](O)C[C@@H](Nc2nnc(-c3ccc4c(c3O)CCO4)c(C)n2)C1 [Example 6, (3S,5R)-1-Ethyl-5-[[6-(4-hydroxy-2,3-dihydrobenzofuran-5-yl)-5-methyl-1,2,4-triazin-3-yl]amino]piperidin-3-ol]
pIC50 (NLRP3 [1]): 7.55
pIC50 (NLRP3 [2]): 7.64

Cc1nc(N[C@@H]2CCCN(CCCC(=O)N(C)CCO)C2)nnc1-c1ccc2c(c1O)CCO2 [Example 14]
pIC50 (NLRP3 [1]): 7.12
